Publication PMC4595607, “mRNA export through an additional cap-binding complex consisting of NCBP1 and NCBP3” (Nature Communications, 2015)
Where a chain is given by its changes, count along the chain named.

Tests used:
[1] = molecular target: T1, NCBP3 (aa 1-282); C17orf85 (Homo sapiens, UniProt Q53F19); assay: affinity purification on m7GTP-agarose, Coomassie SDS-PAGE; assay type: binding; details: compound immobilised as γ-aminohexyl m7GTP-agarose
T1 construct: N-terminal fragment 1-282 with core RRM; expressed in E. coli BL21-AI, purified; untagged for MST and CD (MBP/His construct cloned)
T1 sequence (Q53F19 1-282): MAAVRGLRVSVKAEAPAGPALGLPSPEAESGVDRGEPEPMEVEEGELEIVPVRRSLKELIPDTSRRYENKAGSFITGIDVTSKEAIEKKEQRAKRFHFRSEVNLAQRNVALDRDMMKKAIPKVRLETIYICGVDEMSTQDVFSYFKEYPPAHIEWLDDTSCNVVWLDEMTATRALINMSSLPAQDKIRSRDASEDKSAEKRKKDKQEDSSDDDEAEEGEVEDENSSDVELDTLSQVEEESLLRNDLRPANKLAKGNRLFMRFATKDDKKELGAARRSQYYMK

[2] = molecular target: T2, recombinant NCBP3 from E. coli lysates (Homo sapiens, UniProt Q53F19); assay: affinity purification on m7GTP-agarose from E. coli lysate, western blot; assay type: biochemical; details: compound immobilised as γ-aminohexyl m7GTP-agarose
T2 construct: full-length, N-terminal His tag (pETG10A-NCBP3; MBP/His version also made), E. coli BL21-AI lysate
T2 sequence (Q53F19 1-620): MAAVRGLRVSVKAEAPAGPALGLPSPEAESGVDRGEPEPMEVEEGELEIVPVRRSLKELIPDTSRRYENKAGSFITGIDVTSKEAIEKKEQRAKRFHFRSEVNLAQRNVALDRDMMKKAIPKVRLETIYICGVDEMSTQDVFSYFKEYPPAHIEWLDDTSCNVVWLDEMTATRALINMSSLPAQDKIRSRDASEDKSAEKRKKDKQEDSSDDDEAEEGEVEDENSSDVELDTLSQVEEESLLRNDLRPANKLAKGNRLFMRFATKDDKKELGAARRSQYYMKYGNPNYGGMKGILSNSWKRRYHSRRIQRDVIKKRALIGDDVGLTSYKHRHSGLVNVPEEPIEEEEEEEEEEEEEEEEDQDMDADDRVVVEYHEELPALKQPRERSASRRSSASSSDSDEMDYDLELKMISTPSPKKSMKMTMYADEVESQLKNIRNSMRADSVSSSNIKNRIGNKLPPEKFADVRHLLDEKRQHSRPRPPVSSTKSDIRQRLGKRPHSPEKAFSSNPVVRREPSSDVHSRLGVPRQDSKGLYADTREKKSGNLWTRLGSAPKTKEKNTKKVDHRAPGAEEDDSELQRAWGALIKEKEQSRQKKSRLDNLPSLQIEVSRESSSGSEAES

[3] = molecular target: T3, NCBP3 (aa 1-282); C17orf85 (Homo sapiens, UniProt Q53F19, W155A/D157A/D158A); assay: affinity purification on m7GTP-agarose, Coomassie SDS-PAGE; assay type: binding; details: compound immobilised as γ-aminohexyl m7GTP-agarose; WLDD motif mutant (ALAA)
T3 construct: N-terminal fragment 1-282 with core RRM; expressed in E. coli BL21-AI, purified; untagged for MST and CD (MBP/His construct cloned)
T3 sequence (Q53F19 1-282 W155A/D157A/D158A): T1 sequence (Q53F19 1-282) with W155A, D157A, D158A

[4] = system: NCBP3 1-282 (RRM fragment) (Homo sapiens); assay: MST; details: 5' m7G cap (CAP0); 3' amino linker; MST: equal volumes of MST-1 (50 mM Tris-HCl pH 7.4, 150 mM NaCl, 10 mM MgCl2, 0.05% Tween-20; RNA 50 nM) and MST-2 (20 mM Tris-HCl pH 7.4, 300 mM NaCl, 5% …)

**Q.** Which “affinity purification on m7GTP-agarose, Coomassie SDS-PAGE” value [1] does the source give for `C[n+]1cn([C@@H]2O[C@H](COP(=O)(O)OP(=O)(O)OP(=O)(O)O)[C@@H](O)[C@H]2O)c2nc(N)[nH]c(=O)c21` [m^7GTP] here?
**A.** Its value is “recombinant NCBP3 selectively bound m^7GTP but not GTP”.

**Q.** And the “affinity purification on m7GTP-agarose from E. coli lysate, western blot” value [2]?
**A.** The value was “m^7GTP versus GTP-affinity purification and western blotting of recombinant NCBP3 from E. coli lysates”.

**Q.** What about the loss of binding [3] of the same molecule?
**A.** Its loss of binding is “mutation of the NCBP3 WLDD motif to ALAA resulted in loss of binding”.

**Q.** For CAP-RNA oligo (CAP0), DyLight, which Kd [4] is on record?
**A.** The Kd was 15.8 µM.
